# Biological target: GLP1R (Homo sapiens, UniProt P43220)
# Assay: GLP1R cAMP HTRF assay, HEK293/GLP-1R/CRE/Luc (HEK293T cells)
# Type: cell-based
# Details: read-out: EC50
# Procedure, shortened: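 cAMP accumulation via HTRF after 30 min, 37 °C exposure of 1000 receptor-expressing cells/well to compound (0.5% DMSO final) in IBMX (500 μM)/0.1% BSA DPBS.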
# Chain of GLP1R (P43220 24-463): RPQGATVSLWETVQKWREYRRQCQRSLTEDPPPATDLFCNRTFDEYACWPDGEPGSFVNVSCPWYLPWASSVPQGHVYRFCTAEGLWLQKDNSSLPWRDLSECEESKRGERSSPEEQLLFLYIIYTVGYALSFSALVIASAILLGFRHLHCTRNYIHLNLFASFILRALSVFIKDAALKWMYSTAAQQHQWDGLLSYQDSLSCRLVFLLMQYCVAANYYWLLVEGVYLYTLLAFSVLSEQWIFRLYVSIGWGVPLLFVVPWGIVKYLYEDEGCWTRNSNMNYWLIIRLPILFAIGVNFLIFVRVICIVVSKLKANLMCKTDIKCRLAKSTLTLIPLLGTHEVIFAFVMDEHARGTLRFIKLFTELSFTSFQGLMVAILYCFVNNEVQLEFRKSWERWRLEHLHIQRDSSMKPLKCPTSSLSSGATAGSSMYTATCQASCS
row,EC50 [nM],Compound
1,≤ 150,"O=C(O)c1ccc2nc(CN3CC=C(c4cc(OCc5ccc(Cl)cc5F)ncc4F)CC3)n(C[C@@H]3CCO3)c2c1 [Compound 128, (S)-2-((2′-((4-chloro-2-fluorobenzyl)oxy)-5′-fluoro-3,6-dihydro-[4,4′-bipyridin]-1(2H)-yl)methyl)-1-(oxetan-2-ylmethyl)-1H-benzo[d]imidazole-6-carboxylic acid]"
2,≤ 150,"O=C(O)c1ccc2nc(CN3CC=C(c4cccc(OCc5ncc(Cl)cn5)n4)CC3)n(C[C@@H]3CCO3)c2c1 [Compound 164, (S)-2-((6-((5-chloropyrimidin-2-yl)methoxy)-3′,6′-dihydro-[2H′-bipyridin]-1′(2′H)-yl)methyl)-1-(oxetan-2-ylmethyl)-1H-benzo[d]imidazole-6-carboxylic acid]"
3,≤ 150,"O=C(O)c1ccc2nc(CN3CCN(c4ccc(F)c(OCc5ccc(C#CC6CC6)cc5F)c4)CC3)n(C[C@@H]3CCO3)c2c1 [Compound 196, (S)-2-((4-(3-((4-(cyclopropylethynyl)-2-fluorobenzyl)oxy)-4-fluorophenyl)piperazin-1-yl)methyl)-1-(oxetan-2-ylmethyl)-1H-benzo[d]imidazole-6-carboxylic add]"
4,≤ 15,"O=C(O)c1ccc2nc(CN3CCN(c4ncc(F)c(OCc5ccc(Cl)cc5F)n4)CC3)n(C[C@@H]3CCO3)c2c1 [Compound 180, (S)-2-((4-(4-(4-chloro-2-fluorobenzyloxy)-5-fluoropyrimidin-2-yl)piperazin-1-yl)methyl)-1-(oxetan-2-ylmethyl)-1H-benzo[d]imidazole-6-carboxylic add]"
5,≤ 15,CC(C)c1ccc(COc2cccc(C3=CCN(Cc4nc5ccc(C(=O)O)cc5n4C[C@@H]4CCO4)CC3)n2)cc1 [Compound 148]
6,≤ 15,"O=C(O)c1ccc2nc(CN3CC=C(c4cccc(OCc5ccc(Cl)cc5F)n4)CC3)n(C[C@@H]3CCO3)c2n1 [Compound 169, (S)-2-((6-((4-chloro-2-fluorobenzyl)oxy)-3′,6′-dihydro-[2,4′-bipyridin]-1′(2′H)-yl)methyl)-3-(oxetan-2-ylmethyl)-3H-imidazo[4,5-b]pyridine-5-carboxylic acid]"
7,> 1000,"O=C(O)c1ccc2nc(CN3CCN(c4cccn(CCc5ccc(Cl)cc5F)c4=O)CC3)n(C[C@@H]3CCO3)c2c1 [Compound 8, (S)-2-((4-(1-(4-chloro-2-fluorophenethyl)-2-oxo-1,2-dihydropyridin-3-yl)piperazin-1-yl)methyl)-1-(oxetan-2-ylmethyl)-1h-benzo[d]imidazole-6-carboxylic acid]"
8,≤ 1000,"CC(c1ncco1)n1c(CN2CC=C(c3cccc(OCc4ccc(Cl)cc4F)n3)CC2)nc2ccc(C(=O)O)cc21 (centres unmarked) [Compound 112, 2-((6-((4-chloro-2-fluorobenzyl)oxy)-3′,6′-dihydro-[2,4′-bipyridin]-1′(2′H)-yl)methyl)-1-(1-(oxazol-2-yl)ethyl)-1H-benzo[d]imidazole-6-carboxylic acid]"
9,≤ 15,"O=C(O)c1cc2c(cc1F)nc(CN1CC=C(c3cccc(OCc4ccc(Cl)cc4F)n3)CC1)n2C[C@@H]1CCO1 [Compound 172, (S)-2-((6-((4-chloro-2-fluorobenzyl)oxy)-3′,6′-dihydro-[2H′-bipyridin]-1′(2′H)-yl)methyl)-5-fluoro-1-(oxetan-2-ylmethyl)-1H-benzo[d]imidazole-6-carboxylic acid]"

row,Compound,EC50 [nM]
1,"O=C(O)c1ccc2nc(CN3CCN(c4ccc(=O)n(CCc5ccc(Cl)cc5F)n4)CC3)n(C[C@@H]3CCO3)c2c1 [Compound 6, (S)-2-((4-(1-(4-chloro-2-fluorophenethyl)-6-oxo-1,6-dihydropyridazin-3-yl)piperazin-1-yl)methyl)-1-(oxetan-2-ylmethyl)-1 h-benzo[d]imidazole-6-carboxylic add]",> 1000
2,"(S)-2-((4-(3-((4-cyano-2-fluorobenzyl)oxy)-5-fluorophenyl)-5,6-dihydropyridin-1(2H)-yl)methyl)-1-(oxetan-2-ylmethyl)-1H-benzo[d]imidazole-6-carboxylic add [Compound 218]",≤ 150
